From US4005100A, “Pyrazole-5-carboxamides” (Hoffmann-La Roche Inc., priority 1972, dated 1977)
Where “and” joins values, the source holds several entries; their conditions need not be identical. Identical values can stand only once.

Key:
[1] = DL50 in the rat, single oral application; conditions: in vivo, observation period 10 days
Excerpt: The DL50 in the rat amounts to 8 g/kg (single oral application: observation period 10 days).

[2] = test system: streptozotocin-diabetic rats; experiment: free fatty acid level (in % of controls) upon oral administration to streptozotocin-diabetic rats; assay type: in vivo, rat (Female Albino-rats)
Method: (§1) A compound encompassed by the formula I, namely, 3-methyl-N-(5-methyl-3,3-diphenyl-pyrrolin-2-yl)pyrazole-5-carboxamide, upon oral administration to maximal streptozotocin-diabetic rats gave the following values for the glucose and fatty acid levels (in % of controls):
(§2) The test procedure was that described by E. LORCH in Diabetologia 7, 195-203 (1971).
(§3) Female (140-160 gr) Albino-rats were starved (24 hrs) and refed (16 hrs) one week after Streptozotocin administration (60 mg/kg s.c.). Mean plasma glucose values: 500-600 mg/100 ml plasma. Diabetic starved-refed control animals received the suspension vehicle alone.

[3] = test system: streptozotocin-diabetic rats; experiment: glucose level (in % of controls) upon oral administration to streptozotocin-diabetic rats; assay type: in vivo, rat (Female Albino-rats)
Method: as §1, §2, §3

[4] = 100 μmol/kg oral, 4 hours after application
[5] = 300 μmol/kg oral, 2 hours after application
[6] = 300 μmol/kg oral, 6 hours after application
[7] = 1000 μmol/kg oral, 4 hours after application

Q: For `Cc1cc(C(=O)NC2=NC(C)CC2(c2ccccc2)c2ccccc2)[nH]n1` (stereo not drawn) [3-methyl-N-(5-methyl-3,3-diphenyl-1-pyrrolin-2-yl)-pyrazole-5-carboxamide], which LD50 at 240 h [1] is on record?
A: 8000 mg/kg

Q: And the Free fatty acids [2, 4]?
A: 56 % of controls

Q: What about the Free fatty acids [2, 5] of the same compound?
A: 59 % of controls

Q: What about the Free fatty acids ([2]; 300 μmol/kg oral, 4 hours after application) of the same compound?
A: 72 % of controls and 62 % of controls

Q: What about the Free fatty acids [2, 6] of the same compound?
A: 50 % of controls

Q: And the Free fatty acids [2, 7]?
A: 57 % of controls

Q: What about the Glucose ([3]; 100 μmol/kg oral, 2 hours after application) of the same compound?
A: 70 % of controls

Q: What about the Glucose [3, 4] of the same compound?
A: 80 % of controls and 96 % of controls and 50 % of controls

Q: What about the Glucose ([3]; 100 μmol/kg oral, 6 hours after application) of the same compound?
A: 60 % of controls

Q: What about the Glucose [3, 5] of the same compound?
A: 76 % of controls and 70 % of controls

Q: What about the Glucose [3, 6] of the same compound?
A: 71 % of controls and 59 % of controls

Q: What about the Glucose [3, 7] of the same compound?
A: 89 % of controls and 80 % of controls
